# Measurements from US11014913B2, “Pyridazinones as PARP7 inhibitors” (Ribon Therapeutics Inc., priority 2018, dated 2021).
# How the values were obtained:
# PARP7 [1] = target: T1, PARP7 (Homo sapiens (Human), UniProt Q7Z3E1); assay: Enzymatic assay for inhibition of PARP7 (TR-FRET displacement of Probe A from the TIPARP active site); assay type: binding
# Protocol: 20 nL of a dose response curve of each test compound was spotted in black 384-well polystyrene proxiplates (Perkin Elmer) using a Mosquito (TTP Labtech). […] Reactions were incubated at 25° C. for an additional 30 min, then read on an Envision platereader equipped with a LANCE/DELFIA top mirror (Perkin Elmer) using excitation of 320 nm and emission of 615 nm and […] with a 90 μs delay. The ratio of the 665/615 nm emission were calculated for each well to determine the amount of complex of TIPARP and Probe A in each well. […] The Hill Coefficient is normally allowed to float but may also be fixed at 1 in a 3-parameter fit. Y is the % inhibition and X is the compound concentration.
# PARP7 [2] = target: T1, PARP7; assay: PARP7 inhibition potency (Table A-1); assay type: biochemical; settings: comparison of separated isomers; see Table A-1
# CT26 cells [3] = assay: Tumor growth in murine syngeneic model CT26 (subcutaneous dosing); assay type: in vivo; settings: CT26, BALB/c mice
# Excerpt: (§1) Example G: Inhibition of Tumor Growth by Treatment with PARP7 Inhibitors
# For the CT26 study BALB/c mice were inoculated subcutaneously at the right flank with CT26 cells for tumor development. Four days after tumor inoculation, 36 mice with tumor size ranging from 40-55 mm^3 (average tumor size 47 mm^3) were selected and assigned into 3 groups using stratified randomization with 12 mice in each group based upon their tumor volumes. The treatments were started from the next day post randomization (defined randomization day as day 0) and were treated with vehicle (0.5% methylcellulose +0.2% Tween 80), Compound 98 (500 mg/kg S.C. QD*21 days), Compound 93A (100 mg/kg S.C. BID*21 days) respectively. The tumor sizes were measured three times per week during the treatment. The entire study was terminated on day 21.
# (§2) Mean tumor volume and SEM for both studies are plotted. Statistical significance, calculated using two-tailed unpaired t-tests in which each treatment group was compared to vehicle control, is indicated by an asterisk. Statistics were performed on groups with less than 20% animal loss (D21 for CT26, D17 for 4T1).
# 4T1-luc2-1A4 cells = assay: Tumor growth in murine syngeneic model 4T1 (orthotopic, mammary fat pad); assay type: in vivo; settings: 4T1, BALB/c mice
# Excerpt: as §1
# For the 4T1 study female BALB/c mice were inoculated orthotopically in the mammary fat pad with 4T1-luc2-1A4 cells for tumor development. Eight days after tumor inoculation, 45 mice with tumor size ranging from 63-88 mm^3 (average tumor size 67 mm^3) were selected and assigned into 3 groups using stratified randomization with 15 mice in each group based upon their tumor volumes. The treatments were started from the next day post randomization (defined randomization day as D0) and were treated with vehicle (0.5% methylcellulose +0.2% Tween 80), Compound 98 (500 mg/kg S.C. QD*21 days), Compound 93A (100 mg/kg S.C. BID*21 days) respectively. The tumor sizes were measured three times per week during the treatment. The entire study was terminated on D20.
# as §2
# NCI-H1373 cells = assay: Tumor growth in human NCI-H1373 lung cancer xenograft (oral dosing); assay type: in vivo, SCID mice; settings: 62.5 to 500 mg/kg once a day for 28 days
# Excerpt: (§3) Example H: Inhibition of Tumor Growth by Oral Dosing with a PARP7 Inhibitor
# (§4) The effect of Compound 561 on tumor growth was studied in a human NCI-H1373 lung cancer xenograft and a murine CT26 colon cancer syngeneic model.
# For the NCI-H1373 study, SCID mice were inoculated subcutaneously in the right flank with NCI-H1373 cells for tumor development. After 5 days of tumor growth, mice with 89-148 mm^3 tumors were randomized into treatment groups with mean tumor volumes of 121 mm^3. The treatments were started from the next day post randomization (defined randomization day as day 0) and were treated with vehicle (50% Labrasol) or Compound 561 (62.5, 125, 250, and 500 mg/kg) once a day for 28 days by oral gavage. Tumor volumes were determined by manual calipers every 2-3 days. Mean tumor volume and SEM are plotted. QD: once a day; PO: per oral administration. Statistical significance is calculated using two-way ANOVA followed by Bonferroni post-tests in which the treatment groups were compared to vehicle control (**** P<0.0001).
# CT26 cells [4] = assay: Tumor growth in murine CT26 colon cancer syngeneic model (oral dosing); assay type: in vivo; settings: CT26, BALB/c mice, BID 125-500 mg/kg or QD 500 mg/kg, 21 days
# Excerpt: as §3, §4
# For the CT26 study, BALB/c mice were inoculated subcutaneously in the right flank with CT26 cells for tumor development. After 5 days of cell inoculation, mice with 36-79 mm^3 tumors were randomized into treatment groups with mean tumor volumes of 54 mm^3. The treatments were started from the next day post randomization (defined randomization day as day 0) and were treated with vehicle (25 or 50% Labrasol) or Compound 561 BID (2 times a day every 12 hours) at doses ranging from 125-500 mg/kg or QD (once a day) at 500 mg/kg for 21 days by oral gavage or needle subcutaneously. Tumor volumes were determined by manual calipers every 2-3 days. Mean tumor volume and SEM are plotted. BID: twice a day; PO: per oral administration; QD: once a day; SC: per subcutaneous administration. The first two doses for vehicle and Compound 561 500 mg/kg in the QD groups were delivered by subcutaneous injection. […] Statistical significance is calculated using two-way ANOVA followed by Bonferroni post-tests in which the treatment groups were compared to vehicle control (**** P<0.0001).
# T1 sequence (Q7Z3E1 whole entry): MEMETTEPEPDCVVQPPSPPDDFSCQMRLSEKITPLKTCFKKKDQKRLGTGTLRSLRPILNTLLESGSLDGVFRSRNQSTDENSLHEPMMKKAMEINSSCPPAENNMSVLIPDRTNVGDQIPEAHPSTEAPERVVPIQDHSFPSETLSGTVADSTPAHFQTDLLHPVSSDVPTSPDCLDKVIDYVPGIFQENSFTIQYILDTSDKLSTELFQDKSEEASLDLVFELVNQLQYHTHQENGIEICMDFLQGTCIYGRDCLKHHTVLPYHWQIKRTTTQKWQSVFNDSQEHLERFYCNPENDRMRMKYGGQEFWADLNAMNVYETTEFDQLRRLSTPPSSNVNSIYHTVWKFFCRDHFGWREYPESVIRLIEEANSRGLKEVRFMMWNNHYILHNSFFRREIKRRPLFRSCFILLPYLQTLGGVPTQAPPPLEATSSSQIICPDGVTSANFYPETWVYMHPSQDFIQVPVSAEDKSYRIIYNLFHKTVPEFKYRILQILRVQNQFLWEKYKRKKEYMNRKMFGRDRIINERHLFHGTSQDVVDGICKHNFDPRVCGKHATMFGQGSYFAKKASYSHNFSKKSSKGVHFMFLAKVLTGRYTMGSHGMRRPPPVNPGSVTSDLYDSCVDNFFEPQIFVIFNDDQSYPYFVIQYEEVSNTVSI
compound,measurement,setting,value
"5-[(2R)-2-[3-[4-(5-chloropyrimidin-2-yl)piperazin-1-yl]-3-oxopropoxy]-3-methoxypropoxy]-4-(trifluoromethyl)-2,3-dihydropyridazin-3-one [Example 560 Isomer B]",IC50,PARP7 [1],100 to 1000 nM
"5-[[(2R)-1-[3-[4-(5-chloropyrimidin-2-yl)piperazin-1-yl]-3-oxopropoxy]-3-methoxypropan-2-yl]oxy]-4-(trifluoromethyl)-2,3-dihydropyridazin-3-one [Example 560 Isomer D]",IC50,PARP7 [1],100 to 1000 nM
"5-[[(2S)-1-[3-[4-(5-chloropyrimidin-2-yl)piperazin-1-yl]-3-oxopropoxy]-3-methoxypropan-2-yl]oxy]-4-(trifluoromethyl)-2,3-dihydropyridazin-3-one [Example 560 Isomer C]",IC50,PARP7 [1],< 100 nM
"N#Cc1ccc(N2CCN(C(=O)c3cccc(OC[C@@H]4c5ccccc5CN4c4cn[nH]c(=O)c4C(F)(F)F)c3)CC2)nc1 (single isomer, unassigned) [Example 18 Isomer B]",relative potency of the enantiomers,PARP7 [2],more potent enantiomer
"N#Cc1ccc(N2CCN(C(=O)CCOC[C@@H]3c4ccccc4CN3c3cn[nH]c(=O)c3C(F)(F)F)CC2)nc1 [Example 93A, 6-[4-(3-[[(1S)-2-[6-oxo-5-(trifluoromethyl)-1,6-dihydropyridazin-4-yl]-2,3-dihydro-1H-isoindol-1-yl]methoxy]propanoyl)piperazin-1-yl]pyridine-3-carbonitrile]",tumor growth,CT26 cells [3]; 100 mg/kg S.C. BID*21 days,significantly reduce tumor growth
same,tumor growth,4T1-luc2-1A4 cells; 100 mg/kg S.C. BID*21 days,significantly reduce tumor growth
"N#Cc1ccc(N2CCN(C(=O)CCOC[C@@H]3CCCN3c3cn[nH]c(=O)c3C(F)(F)F)CC2)nc1 [Example 98, 6-[4-(3-[[(2S)-1-[6-Oxo-5-(trifluoromethyl)-1,6-dihydropyridazin-4-yl]pyrrolidin-2-yl]methoxy]propanoyl)piperazin-1-yl]pyridine-3-carbonitrile]",tumor growth,CT26 cells [3]; 500 mg/kg S.C. QD*21 days,significantly reduce tumor growth
same,tumor growth,4T1-luc2-1A4 cells; 500 mg/kg S.C. QD*21 days,significantly reduce tumor growth
"N#Cc1ccc(N2CCN(C(=O)CNCC[C@@H]3c4ccccc4CN3c3cn[nH]c(=O)c3C(F)(F)F)CC2)nc1 [Example 144B, 6-[4-[2-([2-[(1R)-2-[6-oxo-5-(trifluoromethyl)-1,6-dihydropyridazin-4-yl]-2,3-dihydro-1H-isoindol-1-yl]ethyl]amino)acetyl]piperazin-1-yl]pyridine-3-carbonitrile]",IC50,PARP7 [1],100 to 1000 nM
"C[C@@H](COCCC(=O)N1CCN(c2ncc(C(F)(F)F)cn2)CC1)Nc1cn[nH]c(=O)c1C(F)(F)F [Example 561, 5-[[(2S)-1-(3-oxo-3-[4-[5-(trifluoromethyl)pyrimidin-2-yl]piperazin-1-yl]propoxy)propan-2-yl]amino]-4-(trifluoromethyl)-2,3-dihydropyridazin-3-one]",tumor regression,NCI-H1373 cells,complete tumor regression at all dose levels
same,tumor growth,CT26 cells [4],significantly reduces tumor growth
